Laboratory results published in patent US11053235B2, “Substituted 1,4-dihydropyrimidines for the treatment of HBV infection or HBV-induced diseases” (Janssen Sciences Ireland Unlimited Company, priority 2018, dated 2021).

Experiments:
[1] = test system: HBV; test: Anti-viral assay in HepG2.2.15 cells: HBV inhibitory activity (HBV DNA in culture medium by q-PCR); format: cell-based; details: Hepatitis B virus, HepG2.2.15, 144 h, HepG2.2.15 cells, 6 days treatment, HBV DNA in culture medium by q-PCR, highest concentration 10 uM; read-out: EC50
Procedure, shortened: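 HepG2.2.15 cells seeded at 40,000/well in 2% FBS medium, dosed next day for 6 days (medium refreshed once midway); 8-point 3-fold dilutions from 10 uM top. HBV DNA in culture medium extracted and quantified by q-PCR; EC50 calculated from dose-response.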

[2] = Cytotoxicity determination in HepG2.2.15 cells (CCK-8); format: cell-based; details: human, 6 days treatment, CCK-8, highest concentration 100 uM
Procedure, shortened: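 HepG2.2.15 cells seeded at 5,000 cells/well in 2% FBS medium and exposed to compounds for 6 days (medium refreshed once), 8 three-fold dilutions from 100 uM. Viability read by CCK-8 after 2.5 h at 37 °C, absorbance 450 nm with 630 nm reference; CC50 calculated.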

Structure (SMILES) | EC50 [1] [µM] | CC50 at 6 days [2] [µM]
CCOC(=O)C1=C([C@H]2CC[C@H](c3cc(C(=O)O)on3)CC2)NC(c2nccs2)=NC1c1ccc(F)c(F)c1Cl (single isomer, unassigned) [Compound I-43-B] | 0.029 | 13.7
CCOC(=O)C1=C([C@H]2CC[C@H](c3ccc(C(=O)O)cc3)CC2)NC(c2nccs2)=NC1c1ccc(F)c(F)c1Cl (single isomer, unassigned) [Compound I-44-A, (trans)-4-(4-(6-(2-Chloro-3,4-difluorophenyl)-5-(ethoxycarbonyl)-2-(thiazol-2-yl)-3,6-dihydropyrimidin-4-yl)cyclohexyl)benzoic Acid] | 0.0085 | 1.81
COC(=O)C1=C([C@H]2CC[C@H](c3ncc(C4(C(=O)O)CC4)cn3)CC2)NC(c2nccs2)=NC1c1ccc(F)c(F)c1Cl (single isomer, unassigned) [Compound I-46-C, 1-(2-((trans)-4-(6-(2-chloro-3,4-difluorophenyl)-5-(methoxycarbonyl)-2-(thiazol-2-yl)-3,6-dihydropyrimidin-4-yl)cyclohexyl)pyrimidin-5-yl)cyclopropanecarboxylic Acid] | 0.015 | 16.1
COC(=O)C1=C([C@H]2CC[C@H](c3ncc(C)c(C(=O)O)n3)CC2)NC(c2nccs2)=NC1c1ccc(F)c(F)c1Br (single isomer, unassigned) [Compound I-47-D, 2-((Trans)-4-(6-(2-bromo-3,4-difluorophenyl)-5-(methoxycarbonyl)-2-(thiazol-2-yl)-3,6-dihydropyrimidin-4-yl)cyclohexyl)-5-methylpyrimidine-4-carboxylic Acid] | 0.0059 | 19.3
COC(=O)C1=C([C@H]2CC[C@H](c3nc(CC(=O)O)c(C)o3)CC2)NC(c2nccs2)=NC1c1ccc(F)cc1Cl (single isomer, unassigned) [Compound I-48-B, (trans)-2-(2-(4-(6-(2-Chloro-4-fluorophenyl)-5-(methoxycarbonyl)-2-(thiazol-2-yl)-3,6-dihydropyrimidin-4-yl)cyclohexyl)-5-methyloxazol-4-yl)acetic Acid] | 0.022 | 23
COC(=O)C1=C([C@H]2CC[C@H](c3ncc(CC(=O)O)cn3)CC2)NC(c2nccs2)=NC1c1ccc(F)c(F)c1Cl (single isomer, unassigned) [Compound I-49-A, 2-(2-((trans)-4-(6-(2-chloro-3,4-difluorophenyl)-5-(methoxycarbonyl)-2-(thiazol-2-yl)-3,6-dihydropyrimidin-4-yl)cyclohexyl)pyrimidin-5-yl)acetic Acid] | 0.011 | 24.7
COC(=O)C1=C([C@H]2CC[C@H](c3ncc(CC(=O)O)cn3)CC2)NC(c2nccs2)=NC1c1ccc(F)cc1Cl (single isomer, unassigned) [Compound I-50-A, 2-(2-((trans)-4-(6-(2-chloro-4-fluorophenyl)-5-(methoxycarbonyl)-2-(thiazol-2-yl)-3,6-dihydropyrimidin-4-yl)cyclohexyl)pyrimidin-5-yl)acetic Acid] | 0.011 | 16.4
COC(=O)C1=C(C2CCN(c3ncc(CC(=O)O)cn3)CC2)NC(c2nccs2)=NC1c1ccc(F)c(F)c1C (single isomer, unassigned) [II-1-B, 2-(2-(4-(6-(3,4-Difluoro-2-methylphenyl)-5-(methoxycarbonyl)-2-(thiazol-2-yl)-3,6-dihydropyrimidin-4-yl)piperidin-1-yl)pyrimidin-5-yl)acetic Acid] | < 0.0046 | 4.97
CCOC(=O)C1=C(C2CCN(c3ncc(C)c(C(=O)O)n3)CC2)NC(c2nccs2)=NC1c1cccc(F)c1C (single isomer, unassigned) [II-2-B, 2-(4-(5-(Ethoxycarbonyl)-6-(3-fluoro-2-methylphenyl)-2-(thiazol-2-yl)-3,6-dihydropyrimidin-4-yl)piperidin-1-yl)-5-methylpyrimidine-4-carboxylic Acid] | 0.0084 | 12.4
CCOC(=O)C1=C(C2CCN(c3ncc(CC(=O)O)cn3)CC2)NC(c2nccs2)=NC1c1cccc(F)c1C (single isomer, unassigned) [II-3-B, 2-(2-(4-(5-(ethoxycarbonyl)-6-(3-fluoro-2-methylphenyl)-2-(thiazol-2-yl)-3,6-dihydropyrimidin-4-yl)piperidin-1-yl)pyrimidin-5-yl)acetic Acid] | < 0.0046 | 4.22
CCOC(=O)C1=C(C2CCN(c3ncc(C)c(C(=O)O)n3)CC2)NC(c2nccs2)=NC1c1ccc(F)cc1C (single isomer, unassigned) [II-4-B, 2-(4-(5-(Ethoxycarbonyl)-6-(4-fluoro-2-methylphenyl)-2-(thiazol-2-yl)-3,6-dihydropyrimidin-4-yl)piperidin-1-yl)-5-methylpyrimidine-4-carboxylic Acid] | 0.019 | 16.3
COC(=O)C1=C(C2CCN(c3ncc(CC(=O)O)cn3)CC2)NC(c2nccs2)=NC1c1cccc(F)c1C (single isomer, unassigned) [II-6-B, 2-(2-(4-(6-(3-Fluoro-2-methylphenyl)-5-(methoxycarbonyl)-2-(thiazol-2-yl)-3,6-dihydropyrimidin-4-yl)piperidin-1-yl)pyrimidin-5-yl)acetic Acid] | 0.0057 | 5.42
COC(=O)C1=C(C2CCN(c3ncc(C)c(C(=O)O)n3)CC2)NC(c2nccs2)=NC1c1ccc(F)cc1C (single isomer, unassigned) [II-7-B, 2-(4-(6-(4-fluoro-2-methylphenyl)-5-(methoxycarbonyl)-2-(thiazol-2-yl)-3,6-dihydropyrimidin-4-yl)piperidin-1-yl)-5-methylpyrimidine-4-carboxylic Acid] | 0.041 | 28.4
COC(=O)C1=C(C2CCN(c3ncc(C)c(C(=O)O)n3)CC2)NC(c2nccs2)=NC1c1cccc(F)c1Cl (single isomer, unassigned) [II-8-B, 2-(4-(6-(2-Chloro-3-fluorophenyl)-5-(methoxycarbonyl)-2-(thiazol-2-yl)-3,6-dihydropyrimidin-4-yl)piperidin-1-yl)-5-methylpyrimidine-4-carboxylic Acid] | 0.0081 | 19
COC(=O)C1=C(C2CCN(c3ncc(CC(=O)O)cn3)CC2)NC(c2nccs2)=NC1c1cccc(F)c1Cl (single isomer, unassigned) [II-9-B, 2-(2-(4-(6-(2-Chloro-3-fluorophenyl)-5-(methoxycarbonyl)-2-(thiazol-2-yl)-3,6-dihydropyrimidin-4-yl)piperidin-1-yl)pyrimidin-5-yl)acetic Acid] | < 0.0046 | 4.9
COC(=O)C1=C(C2CCN(c3ncc(C(=O)O)s3)CC2)NC(c2nccs2)=NC1c1cccc(F)c1Cl (single isomer, unassigned) [II-10-B, 2-(4-(6-(2-Chloro-3-fluorophenyl)-5-(methoxycarbonyl)-2-(thiazol-2-yl)-3,6-dihydropyrimidin-4-yl)piperidin-1-yl)thiazole-5-carboxylic Acid] | 0.0092 | 17.2
COC(=O)C1=C(C2CCN(C(=O)c3cn[nH]c3)CC2)NC(c2nccs2)=NC1c1ccc(F)cc1Cl (single isomer, unassigned) [II-11-X, Methyl 6-(1-(1H-pyrazole-4-carbonyl)piperidin-4-yl)-4-(2-chloro-4-fluorophenyl)-2-(thiazol-2-yl)-1,4-dihydropyrimidine-5-carboxylate] | 0.058 | 16.2
